In US9492444B2, “Extruded extended release abuse deterrent pill” (Pharmaceutical Manufacturing Research Services, Inc., priority 2013, dated 2016):

How the values were obtained:
[1] = General solubility of exemplary components; format: physicochemical; conditions: 200 proof ethanol, filtered through 0.22 micrometer PTFE filter
Source text: The following table lists the relative solubility of exemplary components of a formulation. A number of different dyes are listed along with their solubility information taken from the various literature sources and tested experimentally (200 proof ethanol and filtered through a 0.22 micrometer PTFE filter).

[2] = cited from earlier work

CCN(Cc1cccc(S(=O)(=O)[O-])c1)c1ccc(C(=C2C=CC(=[N+](CC)Cc3cccc(S(=O)(=O)[O-])c3)C=C2)c2ccccc2S(=O)(=O)[O-])cc1.[Na+].[Na+] [Blue #1]
Yes: Alcohol Solubility (tested) [1] | Alcohol Solubility (Literature) [2] | Water Solubility [2]

O=C1/C(=C2\Nc3ccc(S(=O)(=O)[O-])cc3C2=O)Nc2ccc(S(=O)(=O)[O-])cc21.[Na+].[Na+] [Blue #2]
Yes: Alcohol Solubility (tested) [1] | Alcohol Solubility (Literature) [2] | Water Solubility [2]

COc1cc(S(=O)(=O)[O-])c(C)cc1N=Nc1c(O)ccc2cc(S(=O)(=O)[O-])ccc12.[Na+].[Na+] [Red #40]
Yes: Alcohol Solubility (tested) [1] | Alcohol Solubility (Literature) [2] | Water Solubility [2]

O=C([O-])C1=NN(c2ccc(S(=O)(=O)[O-])cc2)C(=O)C1N=Nc1ccc(S(=O)(=O)[O-])cc1.[Na+].[Na+].[Na+] (stereo not drawn) [Yellow #5]
Yes: Alcohol Solubility (tested) [1] | Alcohol Solubility (Literature) [2] | Water Solubility [2]
